Read-outs that look alike come from different tables or passages of the source.

Common to all, as to assay: SelectScreen Kinase Profiling, single point inhibition and IC50 for off-target kinases
Common to all, as to format: biochemical

Assay [1] has as its target off-target kinases (Homo sapiens, UniProt P16234, T674I). To be noted: PDGFRA T674I, mutant y, ZLYTE, ATP Km app.
Assay [2] has as its target off-target kinases (Homo sapiens, UniProt P49759). To be noted: CLK1, ZLYTE, ATP Km app.
Assay [3] deals with T1, off-target kinases (Homo sapiens, UniProt Q8NE63).
T1 sequence (Q8NE63 1-616): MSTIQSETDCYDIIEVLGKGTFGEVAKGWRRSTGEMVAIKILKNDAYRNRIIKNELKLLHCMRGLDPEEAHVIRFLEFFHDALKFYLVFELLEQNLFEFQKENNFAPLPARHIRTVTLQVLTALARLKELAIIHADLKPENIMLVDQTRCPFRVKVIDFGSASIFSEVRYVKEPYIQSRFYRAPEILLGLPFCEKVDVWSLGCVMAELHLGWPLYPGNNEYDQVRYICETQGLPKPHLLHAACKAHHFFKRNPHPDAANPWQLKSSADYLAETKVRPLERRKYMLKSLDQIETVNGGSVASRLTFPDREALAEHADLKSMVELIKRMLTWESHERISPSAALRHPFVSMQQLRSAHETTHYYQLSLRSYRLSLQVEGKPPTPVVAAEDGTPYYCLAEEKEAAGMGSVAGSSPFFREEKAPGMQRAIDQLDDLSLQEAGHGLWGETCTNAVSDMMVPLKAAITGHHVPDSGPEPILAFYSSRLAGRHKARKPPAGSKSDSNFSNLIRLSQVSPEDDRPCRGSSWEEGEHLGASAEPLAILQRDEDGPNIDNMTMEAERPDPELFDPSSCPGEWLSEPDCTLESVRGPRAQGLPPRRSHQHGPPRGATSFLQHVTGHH
The settings on record: HIPK4, ZLYTE, ATP Km app.

Assay [4] deals with off-target kinases (Homo sapiens, UniProt P27361). The settings on record: MAPK3 (ERK1), ZLYTE, ATP Km app.
Assay [5] deals with off-target kinases (Homo sapiens, UniProt O75676). The settings on record: RPS6KA4 (MSK2), ZLYTE, ATP Km app.
Assay [6] addresses T2, off-target kinases (Homo sapiens, UniProt Q13188).
T2 sequence (Q13188 1-491): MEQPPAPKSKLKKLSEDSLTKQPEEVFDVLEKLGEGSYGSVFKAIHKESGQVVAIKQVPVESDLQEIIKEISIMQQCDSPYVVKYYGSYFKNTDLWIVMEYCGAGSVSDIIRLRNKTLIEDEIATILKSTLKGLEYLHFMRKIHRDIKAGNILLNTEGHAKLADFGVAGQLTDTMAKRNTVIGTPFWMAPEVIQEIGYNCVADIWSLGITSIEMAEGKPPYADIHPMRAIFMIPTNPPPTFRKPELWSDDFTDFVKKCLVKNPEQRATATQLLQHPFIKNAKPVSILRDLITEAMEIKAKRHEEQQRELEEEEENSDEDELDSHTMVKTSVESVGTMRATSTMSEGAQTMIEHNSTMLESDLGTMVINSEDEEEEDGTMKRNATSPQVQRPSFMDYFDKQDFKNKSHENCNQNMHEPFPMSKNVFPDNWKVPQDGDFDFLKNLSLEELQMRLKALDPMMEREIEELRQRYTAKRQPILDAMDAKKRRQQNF
To be noted: STK3 (MST2), ZLYTE, ATP Km app.

off-target kinases (Homo sapiens, UniProt P27361), sequence (P27361 whole entry): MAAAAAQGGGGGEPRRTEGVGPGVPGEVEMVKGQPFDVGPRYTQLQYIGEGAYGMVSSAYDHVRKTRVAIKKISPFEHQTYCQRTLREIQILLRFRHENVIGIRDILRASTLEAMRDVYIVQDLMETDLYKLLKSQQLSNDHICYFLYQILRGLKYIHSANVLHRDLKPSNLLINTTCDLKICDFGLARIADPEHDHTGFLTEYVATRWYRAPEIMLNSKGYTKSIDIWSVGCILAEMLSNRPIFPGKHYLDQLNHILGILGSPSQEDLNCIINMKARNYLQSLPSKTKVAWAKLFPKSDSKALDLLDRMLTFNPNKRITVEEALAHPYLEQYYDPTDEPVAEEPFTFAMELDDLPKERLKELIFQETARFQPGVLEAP
off-target kinases (Homo sapiens, UniProt P49759), sequence (P49759 whole entry): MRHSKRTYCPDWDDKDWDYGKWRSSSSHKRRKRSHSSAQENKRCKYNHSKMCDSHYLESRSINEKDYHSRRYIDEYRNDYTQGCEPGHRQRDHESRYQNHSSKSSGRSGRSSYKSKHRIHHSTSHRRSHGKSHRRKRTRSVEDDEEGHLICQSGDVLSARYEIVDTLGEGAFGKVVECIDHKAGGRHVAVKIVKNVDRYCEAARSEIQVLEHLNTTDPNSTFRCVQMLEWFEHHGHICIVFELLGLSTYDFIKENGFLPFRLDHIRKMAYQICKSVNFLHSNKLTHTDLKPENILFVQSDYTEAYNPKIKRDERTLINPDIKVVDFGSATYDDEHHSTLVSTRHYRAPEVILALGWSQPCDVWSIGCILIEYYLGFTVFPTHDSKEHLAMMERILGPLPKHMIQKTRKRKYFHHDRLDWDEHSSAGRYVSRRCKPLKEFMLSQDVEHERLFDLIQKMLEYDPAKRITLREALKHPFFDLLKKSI
off-target kinases (Homo sapiens, UniProt O75676), sequence (O75676 whole entry): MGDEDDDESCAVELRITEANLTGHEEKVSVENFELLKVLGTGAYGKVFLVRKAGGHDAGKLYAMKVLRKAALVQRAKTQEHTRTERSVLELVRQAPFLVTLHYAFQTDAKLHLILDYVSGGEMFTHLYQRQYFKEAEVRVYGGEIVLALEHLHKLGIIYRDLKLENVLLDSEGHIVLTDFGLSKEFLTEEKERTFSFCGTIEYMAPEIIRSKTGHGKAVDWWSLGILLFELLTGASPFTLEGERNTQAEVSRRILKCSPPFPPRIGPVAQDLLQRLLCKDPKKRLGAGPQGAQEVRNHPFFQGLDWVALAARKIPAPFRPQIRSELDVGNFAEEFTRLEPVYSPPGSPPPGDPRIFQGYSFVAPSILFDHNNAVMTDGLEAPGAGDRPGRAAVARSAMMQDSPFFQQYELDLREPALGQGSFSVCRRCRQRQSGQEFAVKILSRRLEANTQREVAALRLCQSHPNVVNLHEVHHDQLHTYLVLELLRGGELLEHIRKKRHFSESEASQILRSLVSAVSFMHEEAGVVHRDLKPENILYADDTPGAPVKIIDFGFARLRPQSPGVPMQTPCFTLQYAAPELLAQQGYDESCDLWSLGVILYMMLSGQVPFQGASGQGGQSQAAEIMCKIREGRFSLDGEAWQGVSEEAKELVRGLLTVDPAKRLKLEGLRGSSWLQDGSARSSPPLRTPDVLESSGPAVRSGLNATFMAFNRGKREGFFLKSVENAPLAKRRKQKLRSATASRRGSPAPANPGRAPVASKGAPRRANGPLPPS
off-target kinases (Homo sapiens, UniProt P16234, T674I), sequence (P16234 24-1089 T674I): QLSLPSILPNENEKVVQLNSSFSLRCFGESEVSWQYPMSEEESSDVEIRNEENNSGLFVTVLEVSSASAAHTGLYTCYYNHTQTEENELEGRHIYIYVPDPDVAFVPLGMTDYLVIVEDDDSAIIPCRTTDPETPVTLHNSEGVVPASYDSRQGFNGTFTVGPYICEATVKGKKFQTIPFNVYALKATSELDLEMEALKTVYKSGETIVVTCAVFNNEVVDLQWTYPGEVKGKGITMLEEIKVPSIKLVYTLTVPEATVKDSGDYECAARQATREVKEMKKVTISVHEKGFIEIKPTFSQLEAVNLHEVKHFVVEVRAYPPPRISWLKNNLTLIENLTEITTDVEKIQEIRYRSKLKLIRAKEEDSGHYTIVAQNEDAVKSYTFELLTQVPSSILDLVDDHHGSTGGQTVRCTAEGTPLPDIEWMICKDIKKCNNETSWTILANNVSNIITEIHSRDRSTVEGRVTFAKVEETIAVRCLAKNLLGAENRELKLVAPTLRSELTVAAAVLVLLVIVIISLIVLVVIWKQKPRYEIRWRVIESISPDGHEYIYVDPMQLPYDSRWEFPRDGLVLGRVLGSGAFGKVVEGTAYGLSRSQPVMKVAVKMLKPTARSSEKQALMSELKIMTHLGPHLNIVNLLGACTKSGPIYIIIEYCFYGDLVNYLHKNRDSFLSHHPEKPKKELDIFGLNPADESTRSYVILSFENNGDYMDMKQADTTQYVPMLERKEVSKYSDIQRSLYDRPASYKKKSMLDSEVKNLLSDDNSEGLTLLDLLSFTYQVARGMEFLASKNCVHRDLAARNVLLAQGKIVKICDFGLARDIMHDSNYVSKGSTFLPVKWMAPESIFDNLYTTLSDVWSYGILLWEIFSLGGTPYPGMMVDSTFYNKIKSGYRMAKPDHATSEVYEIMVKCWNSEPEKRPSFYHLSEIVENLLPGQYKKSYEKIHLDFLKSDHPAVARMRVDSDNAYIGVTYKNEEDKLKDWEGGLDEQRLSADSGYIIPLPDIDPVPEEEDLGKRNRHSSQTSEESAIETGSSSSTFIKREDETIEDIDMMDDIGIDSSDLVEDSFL

Turning to `N#Cc1cc(-c2ncnc(Nc3ccc(N4CCN(C5COC5)CC4)cc3)n2)ccc1OC1CCOCC1` [Compound 1, 5-(4-((4-(4-(oxetan-3-yl)piperazin-1-yl)phenyl)amino)-1,3,5-triazin-2-yl)-2-((tetrahydro-2H-pyran-4-yl)oxy)benzonitrile], the inhibition on off-target kinases [1] (read-out: % Inhibition 1) was 40%; at off-target kinases [1] (read-out: % Inhibition 2), 32%; on off-target kinases [1] (read-out: % Inhibition Avg), 36%; on off-target kinases [2] (read-out: % Inhibition 1) it was 33%; on off-target kinases [2] (read-out: % Inhibition 2), 34%; at off-target kinases [2] (read-out: % Inhibition Avg), 33%. The inhibition on off-target kinases [3] (read-out: % Inhibition 1) was 18%; at off-target kinases [3] (read-out: % Inhibition 2), 14%; on off-target kinases [3] (read-out: % Inhibition Avg) it was 16%; at off-target kinases [4] (read-out: % Inhibition 1), 3%; at off-target kinases [4] (read-out: % Inhibition 2), -2%; at off-target kinases [4] (read-out: % Inhibition Avg) it was 0%. In addition, the inhibition on off-target kinases [5] (read-out: % Inhibition 1) is 0%; on off-target kinases [5] (read-out: % Inhibition 2) it was 2%; at off-target kinases [5] (read-out: % Inhibition Avg), 1%; at off-target kinases [6] (read-out: % Inhibition 1) it was 5%; on off-target kinases [6] (read-out: % Inhibition 2) it was 6%; on off-target kinases [6] (read-out: % Inhibition Avg), 5%.

In general, inhibition refers to the drop in the measured response relative to a control, in per cent.

The record behind these values is US11572590B2, “Methods for evaluating tumor cell spheroids using 3D microfluidic cell culture device” (Dana-Farber Cancer Institute, Inc., priority 2017, dated 2023).
